Test results: PubChem BioAssay (NCI)
“And” between values parts separate entries of the source, which are not always exact repeats. Equal values may be shown once.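 Each compound was tested at five concentrations against cells in 96-well plates for 48 hours. Here, GI50 denotes the concentration required for 50% inhibition of growth. TGI: total growth inhibition.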

Tests used:
Assay in all cases: inhibition of tumour cell growth, NCI panel, 48 h
[1] = test system: HCT-15 colon
[2] = test system: T-47D breast
[3] = test system: UACC-62 melanoma
[4] = test system: RXF 393 renal
[5] = test system: SF-295 CNS
[6] = test system: BT-549 breast
[7] = test system: OVCAR-8 ovarian
[8] = test system: SNB-75 CNS
[9] = test system: IGROV1 ovarian
[10] = test system: DU-145 prostate
[11] = test system: COLO 205 colon
[12] = test system: ACHN renal
[13] = test system: SNB-19 CNS
[14] = test system: HCT-116 colon
[15] = test system: MALME-3M melanoma
[16] = test system: LOX IMVI melanoma
[17] = test system: SK-MEL-28 melanoma
[18] = test system: HS 578T breast
[19] = test system: OVCAR-4 ovarian
[20] = test system: M14 melanoma
[21] = test system: PC-3 prostate
[22] = test system: SR leukemia
[23] = test system: HOP-62 NSCLC
[24] = test system: SF-268 CNS
[25] = test system: NCI-H522 lung
[26] = test system: SF-539 CNS
[27] = test system: SK-MEL-5 melanoma
[28] = test system: CCRF-CEM leukemia
[29] = test system: OVCAR-5 ovarian
[30] = test system: MDA-MB-435
[31] = test system: HT29 colon
[32] = test system: K-562 leukemia
[33] = test system: A549 NSCLC
[34] = test system: MDA-MB-231 breast
[35] = test system: NCI-H23 lung
[36] = test system: 786-0 renal
[37] = test system: SK-MEL-2 melanoma
[38] = test system: HCC-2998 colon
[39] = test system: NCI-H226 lung
[40] = test system: NCI/ADR-RES ovarian
[41] = test system: KM12 colon
[42] = test system: UO-31 renal
[43] = test system: MCF7 breast
[44] = test system: SW-620 colon
[45] = test system: EKVX NSCLC
[46] = test system: OVCAR-3 ovarian
[47] = test system: UACC-257 melanoma
[48] = test system: HOP-92 NSCLC
[49] = test system: SN12C renal
[50] = test system: A498 renal
[51] = test system: CAKI-1 renal
[52] = test system: NCI-H460 lung
[53] = test system: RPMI-8226 leukemia
[54] = test system: HL-60(TB) leukemia
[55] = test system: TK-10 renal
[56] = test system: MOLT-4 leukemia
[57] = test system: SK-OV-3 ovarian

`CN1C(=O)[C@]23SSC1(C)C(=O)N2[C@H]1Nc2ccccc2C1([C@@]12c4ccccc4N[C@@H]1N1C(=O)C4(C)SS[C@]1(C(=O)N4C)[C@H]2O)[C@@H]3O` (stereo partly specified) was tested, and the GI50 [1] was 21.7 nM and 143 nM, the GI50 [2] was 22 nM and 184 nM and the TGI [2] was 89.9 nM and 595 nM. For the same compound, the GI50 [3] was 137 nM and 420 nM, the TGI [3] was 398 nM and 1820 nM and the GI50 [4] was 33 nM and 170 nM. For the same compound, the TGI [4] was 65.7 nM and 318 nM, the GI50 [5] was 275 nM and 2380 nM and the TGI [5] was 555 nM and 4690 nM. For the same compound, the GI50 [6] was 218 nM and 1490 nM, the TGI [6] was 486 nM and 2970 nM and the GI50 [7] was 34.8 nM and 165 nM. For the same compound, the TGI [7] was 75.1 nM and 359 nM, the GI50 [8] was 209 nM and 1960 nM and the TGI [8] was 544 nM and 3500 nM. For the same compound, the GI50 [9] was 238 nM and 290 nM, the TGI [9] was 570 nM and 864 nM and the GI50 [10] was 46.1 nM and 299 nM. The TGI [10] was 208 nM and 1440 nM, the GI50 [11] was 28.3 nM and 153 nM and the TGI [11] was 61.3 nM and 395 nM. For the same compound, the GI50 [12] was 37.1 nM and 57.7 nM, the TGI [12] was 100 nM and 508 nM and the GI50 [13] was 455 nM and 1330 nM. For the same compound, the TGI [13] was 1580 nM and 4340 nM, the GI50 [14] was 55.8 nM and 97.4 nM and the TGI [14] was 229 nM and 556 nM. For the same compound, the GI50 [15] was 22.7 nM and 50.5 nM, the TGI [15] was 53.9 nM and 184 nM and the GI50 [16] was 30.9 nM and 165 nM. For the same compound, the TGI [16] was 70.8 nM and 394 nM, the GI50 [17] was 33.9 nM and 187 nM and the TGI [17] was 76.6 nM and 419 nM. For the same compound, the GI50 [18] was 465 nM and 1580 nM, the TGI [18] was 1730 nM and 5400 nM and the GI50 [19] was 30.2 nM and 164 nM. The TGI [19] was 73.1 nM and 322 nM, the GI50 [20] was 48.2 nM and 175 nM and the TGI [20] was 163 nM and 451 nM. The GI50 [21] was 185 nM and 662 nM, the TGI [21] was 720 nM and 3010 nM and the GI50 [22] was 46.5 nM and 210 nM. The TGI [22] was 417 nM and 1070 nM, the GI50 [23] was 219 nM and 1400 nM and the TGI [23] was 576 nM and 3300 nM. For the same compound, the GI50 [24] was 309 nM and 1960 nM, the TGI [24] was 1260 nM and 5580 nM and the GI50 [25] was 28.8 nM and 179 nM. The TGI [25] was 61.9 nM and 395 nM, the GI50 [26] was 68.7 nM and 277 nM and the TGI [26] was 264 nM and 762 nM. The TGI [27] was 242 nM and 2010 nM, the GI50 [28] was 73.9 nM and 203 nM and the TGI [28] was 1560 nM and 2210 nM. The GI50 [29] was 360 nM and 1440 nM, the TGI [29] was 756 nM and 4210 nM and the GI50 [30] was 96.7 nM and 265 nM. For the same compound, the TGI [30] was 413 nM and 804 nM, the GI50 [31] was 27.6 nM and 187 nM and the TGI [31] was 86.5 nM and 454 nM. The GI50 [32] was 39.7 nM and 84.7 nM, the TGI [32] was 2880 nM and 10500 nM and the TGI [33] was 1100 nM and 6850 nM. For the same compound, the GI50 [34] was 54.9 nM and 321 nM, the TGI [34] was 184 nM and 827 nM and the GI50 [35] was 37.4 nM. For the same compound, the TGI [35] was 101 nM, the GI50 [36] was 44.8 nM and 185 nM and the TGI [36] was 108 nM and 363 nM. The GI50 [37] was 265 nM and 718 nM, the TGI [37] was 540 nM and 2160 nM and the GI50 [38] was 79.1 nM and 567 nM. For the same compound, the TGI [38] was 297 nM and 1940 nM, the GI50 [39] was 290 nM and the TGI [39] was 807 nM. For the same compound, the GI50 [40] was 121 nM and 549 nM, the TGI [40] was 588 nM and 3740 nM and the GI50 [41] was 140 nM and 1210 nM. The TGI [41] was 478 nM and 3410 nM, the GI50 [42] was 45.2 nM and 192 nM and the TGI [42] was 122 nM and 367 nM. The GI50 [43] was 10.7 nM and 45.7 nM, the TGI [43] was 223 nM and 1220 nM and the GI50 [44] was 66.7 nM and 144 nM. For the same compound, the TGI [44] was 434 nM and 660 nM, the GI50 [45] was 64.4 nM and 606 nM and the TGI [45] was 504 nM and 3690 nM. For the same compound, the GI50 [46] was 20.2 nM and 183 nM, the TGI [46] was 57.1 nM and 426 nM and the GI50 [47] was 34.8 nM and 208 nM. For the same compound, the TGI [47] was 94.3 nM and 488 nM, the GI50 [48] was 307 nM and 302 nM and the TGI [48] was 640 nM and 674 nM. The GI50 [49] was 107 nM and 407 nM, the TGI [49] was 1170 nM and 1910 nM and the GI50 [50] was 384 nM and 2330 nM. The TGI [50] was 678 nM and 3810 nM, the GI50 [51] was 48.8 nM and 154 nM and the TGI [51] was 170 nM and 396 nM. For the same compound, the GI50 [52] was 129 nM and 326 nM, the TGI [52] was 1490 nM and 1140 nM and the GI50 [53] was 53.6 nM and 257 nM. The TGI [53] was 221 nM and 882 nM, the GI50 [54] was 235 nM and 254 nM and the TGI [54] was 782 nM and 1530 nM. For the same compound, the GI50 [55] was 54.5 nM and 503 nM, the TGI [55] was 128 nM and 906 nM and the GI50 [56] was 65.3 nM and 214 nM. For the same compound, the TGI [56] was 590 nM and 1370 nM, the GI50 [57] was 293 nM and 1670 nM and the TGI [57] was 751 nM and 4050 nM.
